{"source": "patent US20240391862A1", "about": "“(1,4,5-TRISUBSTITUTED-1H-PYRAZOL-3-YL)OXY-2-ALKOXY ALKYL ACIDS AND THEIR DERIVATIVES, THEIR SALTS AND THEIR USE AS HERBICIDAL AGENTS” (Bayer AKtiengesellschaft, priority 2021, published 2024)", "test_in_all_cases": "Post-emergence herbicidal effect, greenhouse pot test", "key": {"[1]": {"tested_on": "LOLRI", "format": "in vivo, Lolium rigidum", "settings": "320 g/ha", "procedure,_shortened": "(§1)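 Weeds sown in sandy loam, greenhouse-grown 2–3 weeks, then sprayed at one-leaf stage with WP or EC formulations in water plus 0.5% additive at 600 l/ha. Rates 20 to 320 g/ha. Visual rating after about 3 weeks versus untreated controls (100% = plants dead, 0% = like control).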"}, "[2]": {"tested_on": "ALOMY", "format": "in vivo, Alopecurus myosuroides", "settings": "visual rating about 3 weeks after treatment", "procedure,_shortened": "as §1"}, "[3]": {"tested_on": "MATIN", "format": "in vivo, Tripleurospermum inodorum", "procedure,_shortened": "as §1"}, "[4]": {"tested_on": "ABUTH", "format": "in vivo, Abutilon theophrasti", "settings": "visual rating about 3 weeks after treatment", "procedure,_shortened": "as §1"}, "[5]": {"tested_on": "POLCO", "format": "in vivo, Fallopia convolvulus", "procedure,_shortened": "as §1"}, "[6]": {"tested_on": "SETVI", "format": "in vivo, Setaria viridis", "procedure,_shortened": "as §1"}, "[7]": {"tested_on": "KCHSC", "format": "in vivo", "procedure,_shortened": "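Visual rating of activity against untreated plants (100% = plants died, 0% = no effect), done about 3 weeks after treatment. Compounds applied at 20–320 g/ha as aqueous spray (600 l/ha, 0.5% additive) from WP or EC formulations onto one-leaf-stage plants grown in sandy loam under greenhouse conditions.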"}, "[8]": {"tested_on": "DIGSA", "format": "in vivo, Digitaria sanguinalis", "settings": "visual rating about 3 weeks after treatment", "procedure,_shortened": "as §1"}, "[9]": {"tested_on": "AVEFA", "format": "in vivo, Avena fatua", "settings": "visual rating about 3 weeks after treatment", "procedure,_shortened": "as §1"}, "[10]": {"tested_on": "VIOTR", "format": "in vivo, Viola tricolor", "procedure,_shortened": "as §1"}, "[11]": {"tested_on": "ECHCG", "format": "in vivo, Echinochloa crus-galli", "procedure,_shortened": "as §1"}, "[12]": {"tested_on": "PHBPU", "format": "in vivo, Ipomoea purpurea", "procedure,_shortened": "as §1"}, "[13]": {"tested_on": "AMARE", "format": "in vivo, Amaranthus retroflexus", "settings": "visual rating about 3 weeks after treatment", "procedure,_shortened": "as §1"}, "[14]": {"tested_on": "VERPE", "format": "in vivo, Veronica persica", "procedure,_shortened": "as §1"}}}
{"smiles": "COC(=O)CCOC(=O)C(OC)Oc1nn(-c2cc(F)ccc2F)c(-c2cncc(F)c2)c1C1CC1", "note": "(centres unmarked) [Example I-83]", "values": [{"measurement": "Post-emergence effect against LOLRI in %", "setting": "[1]", "value": 90, "unit": "%"}, {"measurement": "Post-emergence effect against ALOMY", "setting": "[2]; 80 g/ha", "value": 90, "unit": "%"}, {"measurement": "Post-emergence effect against ALOMY", "setting": "[2]; 320 g/ha", "value": 90, "unit": "%"}, {"measurement": "Post-emergence effect against MATIN in %", "setting": "[3]; 20 g/ha", "value": 80, "unit": "%"}, {"measurement": "Post-emergence effect against MATIN in %", "setting": "[3]; 80 g/ha", "value": 90, "unit": "%"}, {"measurement": "Post-emergence effect against MATIN in %", "setting": "[3]; 320 g/ha", "value": 90, "unit": "%"}, {"measurement": "Post-emergence effect against ABUTH", "setting": "[4]; 20 g/ha", "value": 80, "unit": "%"}, {"measurement": "Post-emergence effect against ABUTH", "setting": "[4]; 80 g/ha", "value": 90, "unit": "%"}, {"measurement": "Post-emergence effect against ABUTH", "setting": "[4]; 320 g/ha", "value": 90, "unit": "%"}, {"measurement": "Post-emergence effect against POLCO in %", "setting": "[5]; 80 g/ha", "value": 80, "unit": "%"}, {"measurement": "Post-emergence effect against POLCO in %", "setting": "[5]; 320 g/ha", "value": 90, "unit": "%"}, {"measurement": "Post-emergence effect against SETVI in %", "setting": "[6]; 20 g/ha", "value": 90, "unit": "%"}, {"measurement": "Post-emergence effect against SETVI in %", "setting": "[6]; 80 g/ha", "value": 90, "unit": "%"}, {"measurement": "Post-emergence effect against SETVI in %", "setting": "[6]; 320 g/ha", "value": 90, "unit": "%"}, {"measurement": "Post-emergence effect against KCHSC in %", "setting": "[7]; 320 g/ha", "value": 80, "unit": "%"}, {"measurement": "Post-emergence effect against DIGSA", "setting": "[8]; 320 g/ha", "value": 90, "unit": "%"}, {"measurement": "Post-emergence effect against AVEFA", "setting": "[9]; 80 g/ha", "value": 90, "unit": "%"}, {"measurement": "Post-emergence effect against AVEFA", "setting": "[9]; 320 g/ha", "value": 90, "unit": "%"}, {"measurement": "Post-emergence effect against VIOTR in %", "setting": "[10]; 20 g/ha", "value": 90, "unit": "%"}, {"measurement": "Post-emergence effect against VIOTR in %", "setting": "[10]; 80 g/ha", "value": 90, "unit": "%"}, {"measurement": "Post-emergence effect against VIOTR in %", "setting": "[10]; 320 g/ha", "value": 90, "unit": "%"}, {"measurement": "Post-emergence effect against ECHCG", "setting": "[11]; 20 g/ha, visual rating about 3 weeks after treatment", "value": 90, "unit": "%"}, {"measurement": "Post-emergence effect against ECHCG in %", "setting": "[11]; 80 g/ha", "value": 90, "unit": "%"}, {"measurement": "Post-emergence effect against ECHCG in %", "setting": "[11]; 320 g/ha", "value": 90, "unit": "%"}, {"measurement": "Post-emergence effect against PHBPU in %", "setting": "[12]; 20 g/ha", "value": 90, "unit": "%"}, {"measurement": "Post-emergence effect against PHBPU in %", "setting": "[12]; 80 g/ha", "value": 90, "unit": "%"}, {"measurement": "Post-emergence effect against PHBPU in %", "setting": "[12]; 320 g/ha", "value": 90, "unit": "%"}, {"measurement": "Post-emergence effect against AMARE", "setting": "[13]; 20 g/ha", "value": 90, "unit": "%"}, {"measurement": "Post-emergence effect against AMARE", "setting": "[13]; 80 g/ha", "value": 90, "unit": "%"}, {"measurement": "Post-emergence effect against AMARE", "setting": "[13]; 320 g/ha", "value": 90, "unit": "%"}, {"measurement": "Post-emergence effect against VERPE in %", "setting": "[14]; 20 g/ha", "value": 90, "unit": "%"}, {"measurement": "Post-emergence effect against VERPE in %", "setting": "[14]; 80 g/ha", "value": 90, "unit": "%"}, {"measurement": "Post-emergence effect against VERPE in %", "setting": "[14]; 320 g/ha", "value": 90, "unit": "%"}]}
{"smiles": "COC(=O)C(OC)Oc1nn(-c2ccccc2F)c(-c2ccc(F)nc2)c1C(F)(F)F", "note": "(centres unmarked) [Example I-70]", "values": [{"measurement": "pest or weed control at 320 g/ha", "setting": "[1]; Lolium rigidum, 504 h, read-out: Post-emergence effect against LOLRI in %", "value": 90, "unit": "%"}, {"measurement": "pest or weed control at 80 g/ha", "setting": "[2]; Alopecurus myosuroides, 504 h, 80 g/ha, read-out: Post-emergence effect against ALOMY", "value": 80, "unit": "%"}, {"measurement": "pest or weed control at 320 g/ha", "setting": "[2]; Alopecurus myosuroides, 504 h, 320 g/ha, read-out: Post-emergence effect against ALOMY", "value": 90, "unit": "%"}, {"measurement": "pest or weed control at 80 g/ha", "setting": "[3]; Tripleurospermum inodorum, 504 h, 80 g/ha, read-out: Post-emergence effect against MATIN in %", "value": 80, "unit": "%"}, {"measurement": "pest or weed control at 320 g/ha", "setting": "[3]; Tripleurospermum inodorum, 504 h, 320 g/ha, read-out: Post-emergence effect against MATIN in %", "value": 80, "unit": "%"}, {"measurement": "pest or weed control at 80 g/ha", "setting": "[4]; Abutilon theophrasti, 504 h, 80 g/ha, read-out: Post-emergence effect against ABUTH", "value": 80, "unit": "%"}, {"measurement": "pest or weed control at 320 g/ha", "setting": "[4]; Abutilon theophrasti, 504 h, 320 g/ha, read-out: Post-emergence effect against ABUTH", "value": 90, "unit": "%"}, {"measurement": "pest or weed control at 20 g/ha", "setting": "[5]; Fallopia convolvulus, 504 h, 20 g/ha, read-out: Post-emergence effect against POLCO in %", "value": 80, "unit": "%"}, {"measurement": "pest or weed control at 80 g/ha", "setting": "[5]; Fallopia convolvulus, 504 h, 80 g/ha, read-out: Post-emergence effect against POLCO in %", "value": 80, "unit": "%"}, {"measurement": "pest or weed control at 320 g/ha", "setting": "[5]; Fallopia convolvulus, 504 h, 320 g/ha, read-out: Post-emergence effect against POLCO in %", "value": 80, "unit": "%"}, {"measurement": "pest or weed control at 80 g/ha", "setting": "[6]; Setaria viridis, 504 h, 80 g/ha, read-out: Post-emergence effect against SETVI in %", "value": 80, "unit": "%"}, {"measurement": "pest or weed control at 320 g/ha", "setting": "[6]; Setaria viridis, 504 h, 320 g/ha, read-out: Post-emergence effect against SETVI in %", "value": 80, "unit": "%"}, {"measurement": "pest or weed control at 20 g/ha", "setting": "[7]; 504 h, 20 g/ha, read-out: Post-emergence effect against KCHSC in %", "value": 80, "unit": "%"}, {"measurement": "pest or weed control at 80 g/ha", "setting": "[7]; 504 h, 80 g/ha, read-out: Post-emergence effect against KCHSC in %", "value": 90, "unit": "%"}, {"measurement": "pest or weed control at 320 g/ha", "setting": "[7]; 504 h, 320 g/ha, read-out: Post-emergence effect against KCHSC in %", "value": 90, "unit": "%"}, {"measurement": "pest or weed control at 80 g/ha", "setting": "[8]; Digitaria sanguinalis, 504 h, 80 g/ha, read-out: Post-emergence effect against DIGSA", "value": 80, "unit": "%"}, {"measurement": "pest or weed control at 320 g/ha", "setting": "[8]; Digitaria sanguinalis, 504 h, 320 g/ha, read-out: Post-emergence effect against DIGSA", "value": 90, "unit": "%"}, {"measurement": "pest or weed control at 80 g/ha", "setting": "[9]; Avena fatua, 504 h, 80 g/ha, read-out: Post-emergence effect against AVEFA", "value": 90, "unit": "%"}, {"measurement": "pest or weed control at 320 g/ha", "setting": "[9]; Avena fatua, 504 h, 320 g/ha, read-out: Post-emergence effect against AVEFA", "value": 90, "unit": "%"}, {"measurement": "pest or weed control at 80 g/ha", "setting": "[10]; Viola tricolor, 504 h, 80 g/ha, read-out: Post-emergence effect against VIOTR in %", "value": 90, "unit": "%"}, {"measurement": "pest or weed control at 320 g/ha", "setting": "[10]; Viola tricolor, 504 h, 320 g/ha, read-out: Post-emergence effect against VIOTR in %", "value": 90, "unit": "%"}, {"measurement": "pest or weed control at 80 g/ha", "setting": "[11]; Echinochloa crus-galli, 504 h, 80 g/ha, read-out: Post-emergence effect against ECHCG in %", "value": 90, "unit": "%"}, {"measurement": "pest or weed control at 320 g/ha", "setting": "[11]; Echinochloa crus-galli, 504 h, 320 g/ha, read-out: Post-emergence effect against ECHCG in %", "value": 90, "unit": "%"}, {"measurement": "pest or weed control at 80 g/ha", "setting": "[12]; Ipomoea purpurea, 504 h, 80 g/ha, read-out: Post-emergence effect against PHBPU in %", "value": 90, "unit": "%"}, {"measurement": "pest or weed control at 320 g/ha", "setting": "[12]; Ipomoea purpurea, 504 h, 320 g/ha, read-out: Post-emergence effect against PHBPU in %", "value": 90, "unit": "%"}, {"measurement": "pest or weed control at 80 g/ha", "setting": "[13]; Amaranthus retroflexus, 504 h, 80 g/ha, read-out: Post-emergence effect against AMARE", "value": 80, "unit": "%"}, {"measurement": "pest or weed control at 320 g/ha", "setting": "[13]; Amaranthus retroflexus, 504 h, 320 g/ha, read-out: Post-emergence effect against AMARE", "value": 80, "unit": "%"}, {"measurement": "pest or weed control at 80 g/ha", "setting": "[14]; Veronica persica, 504 h, 80 g/ha, read-out: Post-emergence effect against VERPE in %", "value": 90, "unit": "%"}, {"measurement": "pest or weed control at 320 g/ha", "setting": "[14]; Veronica persica, 504 h, 320 g/ha, read-out: Post-emergence effect against VERPE in %", "value": 90, "unit": "%"}]}
